Reference: ChEMBL document CHEMBL1649479, “In vitro activity of doripenem against Burkholderia pseudomallei” (2009)
Values after ≈ are worked out from the molar mass of the structure shown.

Columns and labels:
Format in all cases: functional
[1] = test system: Burkholderia pseudomallei; assay: Antimicrobial activity against Burkholderia pseudomallei by agar dilution method
[2] = test system: Burkholderia pseudomallei; assay: Antimicrobial activity against Burkholderia pseudomallei by Etest method
[3] = test system: Burkholderia pseudomallei; assay: Selectivity ratio of MIC for Burkholderia pseudomallei by agar dilution method to MIC for Burkholderia pseudomallei by Etest method
Pseudomonas aeruginosa = assay: Antimicrobial activity against Pseudomonas aeruginosa ATCC 27853 by agar dilution method
Escherichia coli = assay: Antimicrobial activity against Escherichia coli ATCC 25922 by agar dilution method
[4] = Burkholderia pseudomallei, read-out: MIC90

Compound	MIC90 [1]	inhibition zone (IZ) [1]	MIC50 ([1]; Burkholderia pseudomallei)	MIC90 [1, 4]	MIC [2]	MIC50 [2]	MIC90 [2]	Ratio [3]	MIC (Pseudomonas aeruginosa)	MIC (Escherichia coli)
C[C@@H](O)[C@H]1C(=O)N2C(C(=O)O)=C(S[C@@H]3CN[C@H](CNS(N)(=O)=O)C3)[C@H](C)[C@H]12 [DORIPENEM]	<=2 ug ml-1	24 mm	1 µg/mL (≈ 2.38 µM)	1.5 µg/mL (≈ 3.57 µM)	0.19 µg/mL (≈ 0.452 µM)	0.5 µg/mL (≈ 1.19 µM)	0.75 µg/mL (≈ 1.78 µM)	2	0.125 µg/mL (≈ 0.297 µM)	0.012 µg/mL (≈ 0.0285 µM)
C[C@@H](O)[C@H]1C(=O)N2C(C(=O)O)=C(SCCNC=N)C[C@H]12 [IMIPENEM ANHYDROUS]			1 µg/mL (≈ 3.34 µM)	1 µg/mL (≈ 3.34 µM)		0.5 µg/mL (≈ 1.67 µM)	1 µg/mL (≈ 3.34 µM)			
C[C@@H](O)[C@H]1C(=O)N2C(C(=O)O)=C(S[C@@H]3CN[C@H](C(=O)N(C)C)C3)[C@H](C)[C@H]12 [MEROPENEM]			3 µg/mL (≈ 7.82 µM)	4 µg/mL (≈ 10.4 µM)		1 µg/mL (≈ 2.61 µM)	2 µg/mL (≈ 5.22 µM)			
